According to US8796247B2, “Indole derivative, and pharmacologically acceptable salt thereof” (Kissei Pharmaceutical Co., Ltd., priority 2011, dated 2014):

What was measured:
[1] = biological target: T1, rat EP1 receptor (Rattus norvegicus, UniProt P70597); assay: Test for confirmation of EP1 receptor antagonism: inhibition of prostaglandin E2-induced increase in intracellular calcium concentration in rat EP1 receptor-expressing COS-1 cells; type: cell-based; conditions: prostaglandin E2 10 nM, intracellular calcium fluorescence signal
T1 construct: expressed in transfected cells; host or cells: COS-1 cells, transient transfection with Lipofectamine 2000
T1 sequence (P70597 1-405): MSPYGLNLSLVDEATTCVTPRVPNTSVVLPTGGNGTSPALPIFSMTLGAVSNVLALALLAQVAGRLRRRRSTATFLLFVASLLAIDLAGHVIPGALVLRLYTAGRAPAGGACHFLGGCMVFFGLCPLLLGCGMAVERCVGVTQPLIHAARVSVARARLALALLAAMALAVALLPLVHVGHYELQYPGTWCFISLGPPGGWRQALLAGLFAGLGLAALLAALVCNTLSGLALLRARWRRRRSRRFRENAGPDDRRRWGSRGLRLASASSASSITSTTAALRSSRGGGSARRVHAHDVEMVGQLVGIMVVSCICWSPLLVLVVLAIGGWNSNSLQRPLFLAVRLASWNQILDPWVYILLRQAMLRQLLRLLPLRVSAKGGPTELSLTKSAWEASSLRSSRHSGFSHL
Protocol: Test for Confirmation of EP1 Receptor Antagonism
(1) Preparation of Rat EP1 Expression Vector
Using Rat Kidney BD Marathon-Ready cDNA (Nippon Becton Dickinson Company, Ltd.) as a template, and using a forward primer shown in (SEQ ID NO:1) and a reverse primer shown in (SEQ ID NO:2), a first run of PCR was carried out using KOD-Plus-Ver 2.0 (Toyobo Co., Ltd.). Further, using this amplification product as a template, and using a forward primer shown in (SEQ ID NO:3) and a reverse primer shown in (SEQ ID NO:4), a second run of PCR was carried out in the same manner. The amplification product obtained by the second run of PCR was incorporated into a vector (pcDNA3.1 D/V5-His-TOPO (registered trademark), Invitrogen Japan K. K.). By a conventional method, the vector containing this amplification product was introduced into E. coli (One Shot TOP10 Competent Cells, Invitrogen Corporation) and transformed. This transformed E. coli was cultured in an LB agar medium for one day. After the culture, colonies were selected and cultured in an LB liquid medium containing 50 μg/mL of ampicillin. After the culture, the vector was purified using a QIAprep Spin Miniprep Kit (Qiagen K. K.). The base sequence of the insertion site of this vector (SEQ ID NO:5) was compared with the rat EP1 base sequence (Ptger1) registered as Accession No. NM_013100 in a publicly-known database (NCBI), and as a result, the base sequences completely matched except for a single base. Further, the amino acid sequence translated by the base sequence completely matched the amino acid sequence of the rat EP1 receptor registered as an NCBI Accession No. NP_037232. Therefore, it was confirmed that the cloned gene sequence was a base sequence of the rat EP1 receptor and the obtained amino acid sequence was that of the rat EP1 receptor. The pcDNA3.1 D/V5-His-TOPO (registered trademark) into which the nucleic acid shown in (SEQ ID NO:5) had been inserted was taken as a rat EP1-expressing vector.
(2) Preparation of Rat EP1 Receptor-Expressing Cells
COS-1 cells (Dainippon Sumitomo Pharma Co., Ltd.) were cultured until they reached confluence in an incubator at 37° C. under a 5% CO2 gas condition, using a D-MEM liquid medium (high glucose and L-glutamine contained, Invitrogen Corporation) to which a penicillin-streptomycin solution (Invitrogen Corporation, final concentration: 100 U/mL as benzylpenicillin; 100 μg/mL as streptomycin) as an antibiotic, MEM nonessential amino acids (Invitrogen Corporation, final concentration: 0.1 mM), and fetal calf serum (Sanko Junyaku Co., Ltd., final concentration: 10%) were added.
(2-2) COS-1 Cell Subculture
The cells that had reached confluence were stripped with 0.05% trypsin/0.53 mM EDTA•4Na (Invitrogen Japan K. K.) and resuspended in the liquid medium. The resuspended cells were diluted and cultured in the liquid medium at a spread ratio from 1:4 to 1:8.
(2-3) Preparation of Cells for Introduction of Rat EP1-Expressing Vector
The cells that had reached confluence were stripped with 0.05% trypsin/0.53 mM EDTA•4Na, and resuspended in a D-MEM liquid medium (high glucose and L-glutamine contained, Invitrogen Corporation) to which MEM nonessential amino acids (final concentration: 0.1 mM) and fetal calf serum (final concentration: 10%) were added. In each well of a Poly D-lysine-coated 96-well microplate (BD BioCoat (registered trademark), Nippon Becton Dickinson Company, Ltd.), this resuspended cell suspension culture was prepared to be 5×10^4 cells/well in 100 μL of the liquid medium, and 100 μL of the cell suspension was dispensed and seeded in each well. After seeding, the cells were cultured in an incubator at 37° C. under a 5% CO2 gas condition. Once the cells for introduction of a rat EP1-expressing vector were adhered (about 2 hours after seeding), introduction of the rat EP1-expressing vector was carried out in the following order.
(2-4) Introduction of Rat EP1-Expressing Vector […]

[2] = tested on: Female SD rats; assay: Inhibitory effect of compound on sulprostone-induced bladder contraction; type: in vivo, rat; conditions: urethane-anesthetized female SD rats, sulprostone 0.3 mg/kg s.c., test agent 1.0 mg/kg intravenously; for Bladder Contraction Inhibition Rate (%) 15 minutes: 15 minutes after administration; for Bladder Contraction Inhibition Rate (%) 60 minutes: 60 minutes after administration
Text: Inhibitory Effect of Compound on Sulprostone-Induced Bladder Contraction
Female SD rats were used. Under urethane anesthesia (1.25 g/kg, administered subcutaneously), a tracheal cannula (Size 8, HIBIKI) and a femoral vein cannula for administration (23G needle-equipped PESO) were inserted thereinto. The bladder cannula (PE50) was inserted from the bladder apex. The bladder cannula was connected to a three-way stopcock, and then one port was connected to a pressure transducer and the other port was connected to a syringe filled with saline. Saline was injected into the bladder at an injection rate of 3.6 mL/hour and the bladder contraction pressure was recorded at the time of injection with a recorder (RECTI-HORITZ-8K, NEC Corporation). After 10 minutes from stabilization of the bladder contraction pressure during urination, sulprostone was administered subcutaneously (0.3 mg/kg). Subsequently, once the bladder contraction pressure became constant, a test agent was administered intravenously (1.0 mg/kg). An average bladder contraction pressure during the 10 minute period before administration of sulprostone was used as a baseline (0%). Further, an average bladder contraction pressure during the 10 minute period directly before administration of the test agent was used as a maximum bladder contraction pressure (100%). The average bladder contraction pressures were measured for a 5 minute period before and after 15 minutes and 60 minutes from administration of the test agent. The ratio of this measured value to the maximum bladder contraction pressure was calculated by the following equation and regarded as an average bladder contraction rate after administration of the test agent: (Average Bladder Contraction Rate after Administration of Test Agent (%))=[(Average Bladder Contraction Pressure after Administration of Test Agent)/(Maximum Bladder Contraction Pressure)]×100 EQUATION 1
In addition, the difference between the maximum bladder contraction rate (100%) and the average bladder contraction rate (%) after administration of the test agent was calculated by the following equation and regarded as a bladder contraction inhibition rate of the test agent: (Bladder Contraction Inhibition Rate)=100%−(Average Bladder Contraction Rate after Administration of Test Agent (%)) EQUATION 2

CCS(=O)(=O)NC(=O)c1cccc(Cn2c(-c3ccccc3)cc3cc(OC)c(Cl)cc32)n1 [Example 1-6, 6-(6-chloro-5-methoxy-2-phenylindol-1-ylmethyl)-N-(ethanesulfonyl)pyridine-2-carboxamide]
IC50 [1]: 19 nM | Bladder Contraction Inhibition Rate (%) 15 minutes [2]: 70.0% | Bladder Contraction Inhibition Rate (%) 60 minutes [2]: 35.8%

COc1ccc2c(c1)cc(C1(C)CC1)n2Cc1cccc(-c2nnn[nH]2)n1 [Example 5-5, 5-methoxy-2-(1-methylcyclopropyl)-1-[6-(1H-1,2,3,4-tetrazol-5-yl)pyridin-2-ylmethyl]-1H-indole]
IC50 [1]: 24 nM | Bladder Contraction Inhibition Rate (%) 15 minutes [2]: 85.3% | Bladder Contraction Inhibition Rate (%) 60 minutes [2]: 55.2%

COc1ccc2c(c1)cc(-c1ccccc1)n2Cc1cccc(-c2nnn[nH]2)n1 [Example 2-1, 5-Methoxy-2-phenyl-1-[6-(1H-1,2,3,4-tetrazol-5-yl)pyridin-2-ylmethyl]-1H-indole]
IC50 [1]: 34 nM | Bladder Contraction Inhibition Rate (%) 15 minutes [2]: 73.2% | Bladder Contraction Inhibition Rate (%) 60 minutes [2]: 78.1%

COc1ccc2c(c1)cc(-c1ccccc1)n2Cc1cccc(C(=O)NS(C)(=O)=O)n1 [Example 1-1, N-(Methanesulfonyl)-6-(5-methoxy-2-phenylindol-1-ylmethyl)pyridine-2-carboxamide]
IC50 [1]: 47 nM | Bladder Contraction Inhibition Rate (%) 15 minutes [2]: 67.3% | Bladder Contraction Inhibition Rate (%) 60 minutes [2]: 75.5%
